Measurements from patent US20240240208A1, “COMPOSITIONS AND METHODS FOR INCREASING EFFICIENCY OF PRECISE EDITING REPAIR” (New York Genome Center, Inc., priority 2021, published 2024).

How the values were obtained:
HEK293 DNA-PK KO cells [1] = assay: HDR levels by GFP-to-BFP conversion assay in DNA-PK KO cells clone 22 treated with small molecule inhibitors; format: cell-based, human; details: for HDR levels (% of BFP+ cells over DMSO): 1 μM inhibitor added with Cas9, guide RNA and ssDNA encoding BFP, DNA-PK KO cells clone 22, drugs washed off 24 hours later; for BFP+ increase over DMSO (dose dependent effect on HDR): 10, 5, 1, 0.5, 0.1 and 0.01 μM, DNA-PK KO cells, 24 hours after drug treatment
Experimental: Eighteen targets were targeted with 38 drugs. […] Small molecule inhibitors were added in the media simultaneously with the introduction of Cas9, guide RNA and single-stranded DNA (ssDNA) encoding BFP. HDR levels were measured with the BFP-to-GFP assay. […] Precise repair levels are shown as a % of BFP+ cells over DMSO.
DNA-PK KO cells were tested with the noted compounds at compounds at 10 μM, 5 μM, 1 μM, 0.5 μM, 0.1 μM, and 0.01 μM, as for FIGS. 4 and 6. HDR levels are shown as a % of BFP+ cells over DMSO 24 hours after drug treatment.
To study the efficiency of HDR in human cells we used the green fluorescent protein (GFP) to blue fluorescent protein (BFP) pair, where conversion from GFP to BFP requires editing of 2 nucleotides. The CRISPR screens were performed on a K562 human cell line stably expressing a green fluorescent protein (GFP). GFP was targeted with Cas9, guide RNA targeting GFP, and a single stranded DNA (ssDNA) encoding BFP. Efficiency of HDR in cells carrying specific genetic perturbations (genetic inhibition or activation) were identified using fluorescence-activated cell sorting (FACS), followed by guide RNA recovery and quantification using next-generation sequencing (NGS).
The small molecules were tested on DNA-PK knockout HET293 cells at concentrations of 10 μM or 1 μM. Eighteen targets were targeted with 38 drugs. […] Drug validations were performed in DNA-PK KO cells clone 22 treated with dimethyl sulfoxide (DMSO) or 1 or 10 μM of the indicated inhibitors. HDR levels were measured with the BFP-to-GFP assay. Small molecule inhibitors were added in the media simultaneously with the introduction of Cas9, guide RNA and single-stranded DNA (ssDNA) encoding BFP. The drugs were washed off 24 hours later.
The compounds shown in FIG. 6 were further tested for dose dependent effects. The same cells as described above were treated with the noted compounds at compounds at 10 μM, 5 μM, 1 μM, 0.5 μM, 0.1 μM, and 0.01 μM. HDR levels are shown as a % of BFP+ cells over DMSO 24 hours after drug treatment (FIG. 7).

HEK293 DNA-PK KO cells [2] = assay: MTT cytotoxicity assay after 24 hours drug treatment; format: cell-based, human; details: 10, 5, 1, 0.5, 0.1 and 0.01 μM
Experimental: FIG. 8 is a heat plot showing cytotoxicity after drug treatment. HEK293 DNA-PK KO cells were treated with the noted compounds at 10 μM, 5 μM, 1 μM, 0.5 μM, 0.1 μM, and 0.01 μM in triplicate. After 24 hours an MTT assay was performed.
The same compounds were also tested for cytotoxicity at 10 μM, 5 μM, 1 μM, 0.5 μM, 0.1 μM, and 0.01 μM.

[3] = test system: human K562 PRKDC−/− cells; assay: Precise repair (% BFP conversion) after SpCas9 RNP, EGFP-targeting sgRNA and EBFP ssODN nucleofection; format: cell-based; details: 1 μM, DMSO control 56%
Experimental: To investigate the effect of combinatorial inhibition using a DNA-PK inhibitor and another inhibitor on HDR gene editing rates, human K562 PRKDC−/− cells (a DNA Knock Out cell line) were nucleofected with SpCas9 RNPs with an EGFP-targeting sgRNA and EBFP ssODN and then incubated with 1 μM (micro molar) concentration ST1926 (an inhibitor of POLA1) or DMSO treated (control). Gene editing rates are expressed in percentages and classified as % precise repair (% BFP conversion). The combination of ST1926 treatment in PRKDC-null human cells boosted precise editing from 56% to 73%.

[4] = test system: RFC5, TUBA1B, NEDD8, LIG4, POLQ and RAD51 knock-out lines; assay: HDR levels by cell sorting in gene knock out cell lines treated with DNA-PK inhibitor; format: cell-based, human; details: 2 μM DNA-PK inhibitor in RFC5, TUBA1B
Experimental: Knock out cell lines of the indicated genes were treated with 2 μM of DNA-PK inhibitor. HDR levels were determined by cell sorting.
The inventors identified regulators of homologous directed repair (HDR) that synergize with inhibition of non-homologous end-joining (NHEJ) and further increase HDR levels in human cells. The inventors targeted all of the 20,000 genes in the human genome using a pair of CRISPR-based screens to identify genes that, upon loss (knock-out) or gain (overexpression), increase precise gene repair. Using a CRISPR inhibition screen, a ranked list of the effect of loss of every human gene on precise gene repair. In a CRISPR activation screen, we produced a ranked list of the effect of gain of every human gene on precise gene repair. Combinatorial effects of multiple gene/drug perturbations on boosting precise gene repair were also examined. […]
To study the efficiency of HDR in human cells we used the green fluorescent protein (GFP) to blue fluorescent protein (BFP) pair, where conversion from GFP to BFP requires editing of 2 nucleotides. […] Efficiency of HDR in cells carrying specific genetic perturbations (genetic inhibition or activation) were identified using fluorescence-activated cell sorting (FACS), followed by guide RNA recovery and quantification using next-generation sequencing (NGS).
HDR levels were determined by cell sorting.

Row | Compound | HDR levels (% of BFP+ cells over DMSO) (HEK293 DNA-PK KO cells [1]) | other results
1 | CCn1cc(-c2cccc(C(F)(F)F)c2)c2sc(C(=N)NC3CCS(=O)(=O)CC3)cc2c1=O [I-BRD9] | increased HDR levels | 
2 | Cc1cc2c(C(N)=O)cccc2n1-c1nc2c(c(NCc3ccccc3)n1)COCC2 [CB-5083] | increased HDR levels | 
3 | NC(=O)/C(=C/n1cnc(-c2cc(C(F)(F)F)cc(C(F)(F)F)c2)n1)c1cncnc1 [Eltanexor (KPT-8602), Eltanexor] | increased HDR levels | 
4 | Nc1ncnc2c1c(COc1cccc(Cl)c1)nn2C1CCOCC1 [PF 4800567] | increased HDR levels | 
5 | COc1ccc(CCNCc2ccc(OCc3ccc(Cl)nc3)c(OC)c2)cc1OC.Cl [SBE 13 HCl] |  | BFP+ increase over DMSO (dose dependent effect on HDR) (HEK293 DNA-PK KO cells [1]): dose-dependent increase in HDR; cytotoxicity over DMSO (MTT, viable cells) (HEK293 DNA-PK KO cells [2]): low toxicity
6 | c1ccc(CNc2nc(NCc3ccccc3)c3ccccc3n2)cc1 [DBeQ] | increased HDR levels | 
7 | O=C(O)Cn1c2c(c3cc(F)ccc31)CN(C(=O)c1cccc3ccccc13)CC2 [Setipiprant] | increased HDR levels | 
8 | Cc1cc(OCc2nnc(SC3CCCC3)n2-c2cccnc2)ccc1-c1ccc(S(C)(=O)=O)cc1 [NMS-873] | increased HDR levels | 
9 | CO[C@@H]1[C@@H](OC(N)=O)[C@@H](O)[C@H](Oc2ccc3c(O)c(NC(=O)c4ccc(O)c(CC=C(C)C)c4)c(=O)oc3c2C)OC1(C)C [Novobiocin] | increased HDR levels | 
10 | O=C(O)/C=C/c1ccc(-c2ccc(O)c(C34CC5CC(CC(C5)C3)C4)c2)cc1 [ST1926] | increased HDR levels | % precise repair (% BFP conversion) [3]: 73%
11 | COc1cc(-c2cn(C)c(=O)c3cnccc23)cc(OC)c1CN(C)C [BI-7273] | increased HDR levels | 
12 | Nc1nccc(-c2c(-c3ccc(F)cc3)ncn2C2CCCCC2)n1 [PF-670462] | increased HDR levels | 
13 | CC(=O)Nc1nc(-c2cccc(NS(=O)(=O)c3cccc4c(N(C)C)cccc34)c2)cs1 [HA15] | increased HDR levels | 
14 | C=CC(=O)Nc1ccc(C(=O)Nc2n[nH]c3c2CN(C(=O)N[C@H](CN(C)C)c2ccccc2)C3(C)C)cc1 [YKL-5-124] | increased HDR levels | 
15 | Cc1ncc(CCCN(C)C)cc1Nc1ncc2c(n1)-c1ccc(C(F)(F)F)cc1NC(=S)C2 [MLN0905] | increased HDR levels | 
16 | O=c1cc(N2CCOCC2)oc2c(-c3cccc4c3sc3ccccc34)cccc12 [NU7441] |  | HDR levels [4]: significant increase in the HDR levels
17 | O=C(/C=C\n1cnc(-c2cc(C(F)(F)F)cc(C(F)(F)F)c2)n1)N1CC(F)(F)C1 [KPT-276] | increased HDR levels | BFP+ increase over DMSO (dose dependent effect on HDR) (HEK293 DNA-PK KO cells [1]): promote HDR at low concentration; cytotoxicity over DMSO (MTT, viable cells) (HEK293 DNA-PK KO cells [2]): toxic at high concentration
18 | N#Cc1ccc(COC[C@H]2O[C@@H](n3c(NCc4ccc(Cl)c(Cl)c4)nc4c(N)ncnc43)[C@H](O)[C@@H]2O)cc1 [VER155008] | increased HDR levels | 
19 | COC(=O)[C@H](CCSC)NC(=O)c1ccc(NC[C@@H](N)CS)cc1-c1ccccc1.Cl [FTI 277 HCl] | increased HDR levels | 
20 | COc1cc(Nc2ncc3c(n2)-c2ccc(Cl)cc2C(c2c(F)cccc2OC)=NC3)ccc1C(=O)O [Alisertib] | increased HDR levels | 
21 | O=C(O)c1ccc2cc(-c3ccc(O)c(C45CC6CC(CC(C6)C4)C5)c3)ccc2c1 [CD437] | increased HDR levels | 
22 | Cc1nc(Nc2n[nH]c3c2CN(C(=O)N[C@H](CN(C)C)c2ccccc2)C3(C)C)c2sccc2n1 [PF-3758309] | increased HDR levels | 
